Our source for the GI50 and TGI values is PubChem BioAssay (NCI).

Several values for one entry are separate records, joined by “and”; a condition that tells them apart may be missing. Identical values can stand only once.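 Each compound was tested at five concentrations against cells in 96-well plates for 48 hours. GI50 marks 50% less growth. TGI denotes the concentration required for complete inhibition of growth.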 Where a SMILES comes first, the peptide text is derived from it. [ ]: non-standard residue; d: D form. The star is where a group is joined. ξ: configuration not given here. NMeN = CN[C@@H](CC(N)=O)C(=O)O; NMeV = CN[C@H](C(=O)O)C(C)C; ξNMeV = CNC(C(=O)O)C(C)C; Boc = CC(C)(C)OC(=O)*; ξNMeA = CNC(C)C(=O)O

For this test, the system named is MDA-N. The test is described as follows: inhibition of tumour cell growth, NCI panel, 48 h.
As for `COc1cc2cc(C(=O)Nc3cc(N)c4ccccc4c3CCCl)[nH]c2c(OC)c1OC`, the GI50 was 0.0568 µM and the TGI is 0.219 µM. For `Cn1nc(-c2ccccc2)nc1[N+](=O)[O-]`, the TGI was more than 10 µM.

Turning to `c1ccc2c(c1)-c1ccccc1C2N1CC2CCC(CC2)C1`, the TGI was more than 100 µM. On the same count and under the same terms, then `Cc1cc2cc3c(C)cc(=O)oc3c(C)c2o1`, with more than 100 µM. Regarding `C=C1C(=O)[C@@]23CC1C(O)[C@@H](OC(C)=O)[C@@H]2C1(C)C(OC(C)=O)C[C@@H](OC(C)=O)C(C)(C)[C@@H]1C[C@H]3OC(C)=O` (stereo partly drawn), the GI50 is 2.28 µg/mL; the TGI was > 10 µM and 5.3 µg/mL. `COc1cc(C(c2cc3c(cc2O)OCO3)N2CCCCC2)cc(OC)c1OC` (stereo not drawn) yielded a TGI of 19.8 µM.

As for `O=C1NC(=S)NC(=O)C1=Cc1cccc2cc3ccccc3cc12`, the TGI worked out at 4.69 µM. With `O=[N+]([O-])c1ccc(N=Nc2c(O)ccc3ccccc23)cc1`, the TGI is more than 100 µM. On the same count and under the same terms, for `Cc1ccc(C(=O)C(Cl)C(Cl)c2ccc(C)cc2)cc1` (stereo not drawn) the value was 6.18 µM; for `CN1CCCCCC(=N\O)/C(=N/O)CCCCC1`, more than 100 µM. The molecule `COC(=O)C(C)N(C)C(=O)[C@H](CC(N)=O)N(C)C(=O)[C@@H]1CCCN1C(=O)[C@H](C(C)C)N(C)C(=O)C(C(C)C)N(C)C(=O)[C@@H](NC(=O)OC(C)(C)C)C(C)C` (stereo partly drawn) (Boc-V[ξNMeV][NMeV]P[NMeN][ξNMeA]-OMe) came in with a TGI of more than 50 µM.
